According to patent US20090176817A1, “Method of Treatment of Diarrhea-Predominant Irritable Bowel Syndrome in a Subject” (priority 2005, published 2009):

System: diarrhea-predominant IBS subjects
Test: Study S241.3.006: weekly diary questions on adequate relief
Assay type: in vivo, human
Experimental: The study was conducted in 129 study centers in the United States. At total of 2080 subjects consented to participate, and 711 subjects were randomized. A total of 692 subjects were analyzed for efficacy and 701 subjects were analyzed for safety. Diagnosis and main criteria for inclusion were IBS subjects satisfying the Rome I criteria (1992); the diarrhea predominant sub-population of the Rome II criteria; and a minimum abdominal pain/discomfort, stool frequency and consistency determined during the run-in period. Subjects were treated with cilansetron 2 mg tablets given orally TID or matching placebo tablets given orally TID for 12 weeks double-blind treatment.
The primary efficacy parameter was the number of months that a subject was a responder for IBS symptoms (abdominal pain, abdominal discomfort, abnormal bowel habits) over the 12-week treatment period. A responder for a month (monthly responder) was defined as a subject who answered the weekly question with “yes” at least twice for that month.
Studies S24 1.3.OO6, S24 1.3.0 1 1, and S24 1.3.009 used the following efficacy measurements: • The subjects answered the following three questions with “yes” or “no” using a phone diary at the end of each week: • a) During the last week, did you experience adequate relief of your IBS symptoms, such as abdominal pain, abdominal discomfort, abnormal bowel habits? • b) During the last week, did you experience adequate relief of your abdominal pain and/or discomfort? • c) During the last week, did you experience adequate relief of your abnormal bowel habits? • The subjects rated the following symptoms using the phone diary at the end of each day: • abdominal pain/discomfort (five-point scale); • stool consistency (seven-point Bristol Stool Scale); • stool frequency (number of bowel movements each day); • urgency (five-point scale); • straining (yes or no); • feeling of incomplete defecation (yes or no); • bloating or feeling of abdominal distension (five-point scale). • In Studies S241 A006 and S241.3.009, subjects completed the IBS-QOL Survey at Baseline (Day 1) and at the end of treatment. In Study S24 1.3.0 1 1, subjects completed the IBS-QOL Survey at Baseline (Day 1), at the end of the three-month treatment period, and at the end of rerandomized treatment.
In all three pivotal efficacy studies, the primary and main secondary efficacy parameters were based on the weekly diary questions on adequate relief and included the following: • 1. Number of months (one month equals four weeks) that a subject was a responder for the weekly diary questions on adequate relief. A responder for a month (monthly responder) was defined as a subject who answered the weekly question with “yes” at least twice for that month. For Studies S241.3.006 and S241.3.011, the primary efficacy parameter was the number of months that a subject was a responder for IBS symptoms during the 12-week treatment period. The two main secondary efficacy parameters were the number of months that a subject was a responder for abdominal pain/discomfort and abnormal bowel habits during the 12-week treatment period. For Study S241.3.009, the number of months that a subject was a responder for the weekly diary questions on adequate relief during Months 1 to 3 (the first 12 weeks) and Months 1 to 6 (24-week) was an additional key secondary efficacy parameter. • 2. Overall responder rate for the weekly diary questions on adequate relief. A responder was defined as a subject who answered the weekly question with “yes” for at least half of the answers available with a minimum of four weeks treatment duration. If a subject had less than four weeks treatment duration, the subject was considered a non-responder. The overall responder rate was the percentage of responders within a treatment group. For Study S241.3.009, the primary efficacy parameter was the overall responder rate for IBS symptoms during the 26-week treatment period. […]

[1] = 2 mg TID, monthly LOCF, ITT N = 344
[2] = 2 mg TID, three-month treatment period, monthly LOCF, ITT N = 344
[3] = 2 mg TID, three-month treatment period, observed case, ITT N = 344
[4] = Baseline BMI: <30 kg/m^2, three-month treatment period, monthly LOCF, ITT, 2 mg TID
[5] = Baseline BMI: ≧30 kg/m^2, three-month treatment period, monthly LOCF, ITT, 2 mg TID
[6] = Baseline severity of IBS: non-severe, three-month treatment period, monthly LOCF, ITT, 2 mg TID
[7] = Baseline severity of IBS: non-severe, three-month treatment period, observed case, ITT, 2 mg TID
[8] = Baseline severity of IBS: severe, three-month treatment period, monthly LOCF, ITT, 2 mg TID
[9] = Baseline severity of IBS: severe, three-month treatment period, observed case, ITT, 2 mg TID

Compound: Cc1nccn1C[C@H]1CCc2c(c3cccc4c3n2CCC4)C1=O [Cilansetron, (R)-(−)-4,5,6,8,9,10-hexahydro-10-[(2-methyl-1H-imidazol-1-yl)methyl]-11H-pyrido-[3,2,1-jk]-carbazol-11-one]
- Responders for one month, IBS symptoms (2 mg TID, 3 months): 13%
- Responders for one month, abdominal pain/discomfort (2 mg TID, 3 months): 12%
- Responders for one month, abnormal bowel habits (2 mg TID, 3 months): 12%
- Responders for three months, IBS symptoms (2 mg TID, 3 months): 35%
- Responders for three months, abdominal pain/discomfort (2 mg TID, 3 months): 40%
- Responders for three months, abnormal bowel habits (2 mg TID, 3 months): 38%
- Responders for two months, IBS symptoms (2 mg TID, 3 months): 15%
- Responders for two months, abdominal pain/discomfort (2 mg TID, 3 months): 14%
- Responders for two months, abnormal bowel habits (2 mg TID, 3 months): 15%
- Responders for zero months, IBS symptoms (2 mg TID, 3 months): 37%
- Responders for zero months, abdominal pain/discomfort (2 mg TID, 3 months): 34%
- Responders for zero months, abnormal bowel habits (2 mg TID, 3 months): 36%
- Responder rate, adequate relief of IBS symptoms, Each month of Months 1 to 3 [1]: 119 (35) n (%)
- Responder rate, adequate relief of IBS symptoms, Month 1 [1]: 176 (51) n (%)
- Responder rate, adequate relief of IBS symptoms, Month 2 [1]: 163 (47) n (%)
- Responder rate, adequate relief of IBS symptoms, Month 3 [1]: 169 (49) n (%)
- Responder rate, adequate relief of abdominal pain/discomfort, Each month of Months 1 to 3 [1]: 139 (40) n (%)
- Responder rate, adequate relief of abdominal pain/discomfort, Month 1 [1]: 192 (56) n (%)
- Responder rate, adequate relief of abdominal pain/discomfort, Month 2 [1]: 178 (52) n (%)
- Responder rate, adequate relief of abdominal pain/discomfort, Month 3 [1]: 183 (53) n (%)
- Responder rate, adequate relief of abnormal bowel habits, Each month of Months 1 to 3 [1]: 129 (38) n (%)
- Responder rate, adequate relief of abnormal bowel habits, Month 1 [1]: 180 (52) n (%)
- Responder rate, adequate relief of abnormal bowel habits, Month 2 [1]: 178 (52) n (%)
- Responder rate, adequate relief of abnormal bowel habits, Month 3 [1]: 173 (50) n (%)
- Subjects who were responders for One month, adequate relief of IBS symptoms [2]: 45 (13) n (%)
- Subjects who were responders for One month, adequate relief of abdominal pain/discomfort [2]: 42 (12) n (%)
- Subjects who were responders for One month, adequate relief of abnormal bowel habits [2]: 40 (12) n (%)
- Subjects who were responders for Three months, adequate relief of IBS symptoms [2]: 119 (35) n (%)
- Subjects who were responders for Three months, adequate relief of abdominal pain/discomfort [2]: 139 (40) n (%)
- Subjects who were responders for Three months, adequate relief of abnormal bowel habits [2]: 129 (38) n (%)
- Subjects who were responders for Two months, adequate relief of IBS symptoms [2]: 53 (15) n (%)
- Subjects who were responders for Two months, adequate relief of abdominal pain/discomfort [2]: 47 (14) n (%)
- Subjects who were responders for Two months, adequate relief of abnormal bowel habits [2]: 52 (15) n (%)
- Subjects who were responders for Zero months, adequate relief of IBS symptoms [2]: 127 (37) n (%)
- Subjects who were responders for Zero months, adequate relief of abdominal pain/discomfort [2]: 116 (34) n (%)
- Subjects who were responders for Zero months, adequate relief of abnormal bowel habits [2]: 123 (36) n (%)
- Overall responder rate, adequate relief of IBS symptoms [3]: 168 (49) n (%)
- Overall responder rate, adequate relief of abdominal pain/discomfort [3]: 179 (52) n (%)
- Overall responder rate, adequate relief of abnormal bowel habits [3]: 174 (51) n (%)
- Median adequate relief rate, IBS symptoms (3 months): 0.50
- Median adequate relief rate, abdominal pain/discomfort (3 months): 0.58
- Median adequate relief rate, abnormal bowel habits (3 months): 0.50
- Overall responder rate, IBS symptoms (3 months, observed case, ITT): 49%
- Overall responder rate, abdominal pain/discomfort (3 months, observed case, ITT): 52%
- Overall responder rate, abnormal bowel habits (3 months, observed case, ITT): 51%
- Number of months a subject was a responder: One month (Abdominal pain/discomfort) [4]: 26 (11) n (%)
- Number of months a subject was a responder: One month (Abnormal bowel habits) [4]: 27 (12) n (%)
- Number of months a subject was a responder: One month (IBS symptoms) [4]: 29 (13) n (%)
- Number of months a subject was a responder: Three months (Abdominal pain/discomfort) [4]: 96 (42) n (%)
- Number of months a subject was a responder: Three months (Abnormal bowel habits) [4]: 83 (36) n (%)
- Number of months a subject was a responder: Three months (IBS symptoms) [4]: 80 (35) n (%)
- Number of months a subject was a responder: Two months (Abdominal pain/discomfort) [4]: 29 (13) n (%)
- Number of months a subject was a responder: Two months (Abnormal bowel habits) [4]: 37 (16) n (%)
- Number of months a subject was a responder: Two months (IBS symptoms) [4]: 35 (15) n (%)
- Number of months a subject was a responder: Zero months (Abdominal pain/discomfort) [4]: 79 (34) n (%)
- Number of months a subject was a responder: Zero months (Abnormal bowel habits) [4]: 83 (36) n (%)
- Number of months a subject was a responder: Zero months (IBS symptoms) [4]: 86 (37) n (%)
- Number of months a subject was a responder: One month (Abdominal pain/discomfort) [5]: 16 (14) n (%)
- Number of months a subject was a responder: One month (Abnormal bowel habits) [5]: 13 (11) n (%)
- Number of months a subject was a responder: One month (IBS symptoms) [5]: 16 (14) n (%)
- Number of months a subject was a responder: Three months (Abdominal pain/discomfort) [5]: 43 (38) n (%)
- Number of months a subject was a responder: Three months (Abnormal bowel habits) [5]: 46 (40) n (%)
- Number of months a subject was a responder: Three months (IBS symptoms) [5]: 39 (34) n (%)
- Number of months a subject was a responder: Two months (Abdominal pain/discomfort) [5]: 18 (16) n (%)
- Number of months a subject was a responder: Two months (Abnormal bowel habits) [5]: 15 (13) n (%)
- Number of months a subject was a responder: Two months (IBS symptoms) [5]: 18 (16) n (%)
- Number of months a subject was a responder: Zero months (Abdominal pain/discomfort) [5]: 37 (32) n (%)
- Number of months a subject was a responder: Zero months (Abnormal bowel habits) [5]: 40 (35) n (%)
- Number of months a subject was a responder: Zero months (IBS symptoms) [5]: 41 (36) n (%)
- Number of months a subject was a responder: One month (Abdominal pain/discomfort) [6]: 9 (6) n (%)
- Number of months a subject was a responder: One month (Abnormal bowel habits) [6]: 16 (11) n (%)
- Number of months a subject was a responder: One month (IBS symptoms) [6]: 18 (12) n (%)
- Number of months a subject was a responder: Three months (Abdominal pain/discomfort) [6]: 72 (49) n (%)
- Number of months a subject was a responder: Three months (Abnormal bowel habits) [6]: 68 (46) n (%)
- Number of months a subject was a responder: Three months (IBS symptoms) [6]: 60 (41) n (%)
- Number of months a subject was a responder: Two months (Abdominal pain/discomfort) [6]: 25 (17) n (%)
- Number of months a subject was a responder: Two months (Abnormal bowel habits) [6]: 22 (15) n (%)
- Number of months a subject was a responder: Two months (IBS symptoms) [6]: 24 (16) n (%)
- Number of months a subject was a responder: Zero months (Abdominal pain/discomfort) [6]: 42 (28) n (%)
- Number of months a subject was a responder: Zero months (Abnormal bowel habits) [6]: 42 (28) n (%)
- Number of months a subject was a responder: Zero months (IBS symptoms) [6]: 46 (31) n (%)
- Overall responder rate, adequate relief of IBS symptoms [7]: 81 (55) n (%)
- Overall responder rate, adequate relief of abdominal pain/discomfort [7]: 89 (60) n (%)
- Overall responder rate, adequate relief of abnormal bowel habits [7]: 84 (57) n (%)
- Number of months a subject was a responder: One month (Abdominal pain/discomfort) [8]: 33 (17) n (%)
- Number of months a subject was a responder: One month (Abnormal bowel habits) [8]: 24 (12) n (%)
- Number of months a subject was a responder: One month (IBS symptoms) [8]: 27 (14) n (%)
- Number of months a subject was a responder: Three months (Abdominal pain/discomfort) [8]: 67 (34) n (%)
- Number of months a subject was a responder: Three months (Abnormal bowel habits) [8]: 61 (31) n (%)
- Number of months a subject was a responder: Three months (IBS symptoms) [8]: 59 (30) n (%)
- Number of months a subject was a responder: Two months (Abdominal pain/discomfort) [8]: 22 (11) n (%)
- Number of months a subject was a responder: Two months (Abnormal bowel habits) [8]: 30 (15) n (%)
- Number of months a subject was a responder: Two months (IBS symptoms) [8]: 29 (15) n (%)
- Number of months a subject was a responder: Zero months (Abdominal pain/discomfort) [8]: 74 (38) n (%)
- Number of months a subject was a responder: Zero months (Abnormal bowel habits) [8]: 81 (41) n (%)
- Number of months a subject was a responder: Zero months (IBS symptoms) [8]: 81 (41) n (%)
- Overall responder rate, adequate relief of IBS symptoms [9]: 87 (44) n (%)
- Overall responder rate, adequate relief of abdominal pain/discomfort [9]: 90 (46) n (%)
